pEC50, pIC50: −log10 of the molar value. In brackets after ≈: the same amount, converted by molar mass. One block for each molecule: values may come before it. Activity calls are given as the source filed them. The calls are words filed in the database; no cut-off is given here.
How the values were obtained:
[1] = biological target: T1, Peroxisome proliferator-activated receptor gamma (Homo sapiens, UniProt P37231); assay: Inverse agonist activity at GST tagged human PPARgamma LBD (231 to 505 residues) expressed in Escherichia coli BL21(DE3) assessed as recruitment of fluorescein labeled corepressor NCOR2 Smrt-ID2 peptide to PPARgamma LBD incubated for 24 hrs by LanthaScreen TR-FRET assay
T1 sequence (P37231 whole entry): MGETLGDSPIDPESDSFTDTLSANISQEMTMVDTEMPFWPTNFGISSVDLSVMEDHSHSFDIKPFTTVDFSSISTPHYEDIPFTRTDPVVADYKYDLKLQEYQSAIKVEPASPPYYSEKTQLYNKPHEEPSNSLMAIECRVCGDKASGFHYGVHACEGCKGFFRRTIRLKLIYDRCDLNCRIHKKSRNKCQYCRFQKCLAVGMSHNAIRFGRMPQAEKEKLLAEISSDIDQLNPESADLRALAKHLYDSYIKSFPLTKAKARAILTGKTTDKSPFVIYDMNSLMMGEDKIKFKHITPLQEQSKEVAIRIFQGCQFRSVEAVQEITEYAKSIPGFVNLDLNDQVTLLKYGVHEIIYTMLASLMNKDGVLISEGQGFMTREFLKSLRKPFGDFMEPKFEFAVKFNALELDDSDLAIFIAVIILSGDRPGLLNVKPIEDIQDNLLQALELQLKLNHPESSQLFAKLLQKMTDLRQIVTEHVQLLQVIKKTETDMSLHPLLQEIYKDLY

[2] = biological target: T1, Peroxisome proliferator-activated receptor gamma; assay: Inverse agonist activity at human PPARgamma in human RT112/84 transfected with NLuc-fused FABP4 assessed as reduction in PPARgamma transactivation incubated for 6 to 18 hrs by Nano-Glo luciferase assay; format: cell-based
[3] = Antiproliferative activity against human UM-UC-9 assessed as inhibition of cell proliferation measured after 7 days by IncuCyte live-cell imaging assay; conditions: UM-UC-9, 168 h
[4] = Antiproliferative activity against human UM-UC-9 assessed as inhibition of cell proliferation by measuring maximum efficacy after 7 days by IncuCyte live-cell imaging assay; format: functional; conditions: UM-UC-9, 168 h, time 7 day
[5] = Thermodynamic solubility of compound at pH 6.5 PBS buffer; format: physicochemical; conditions: read-out: Therm_solubility
[6] = biological target: T2, Nuclear receptor subfamily 1 group I member 2 (Homo sapiens, UniProt O75469); assay: Transactivation of human PXR in human HepG2 cells co-expressing luciferase gene under control of CYP3A4 promoter assessed as increase in luciferase activity incubated for 24 hrs by luminescence based analysis; format: ADME, cell-based
T2 sequence (O75469 whole entry): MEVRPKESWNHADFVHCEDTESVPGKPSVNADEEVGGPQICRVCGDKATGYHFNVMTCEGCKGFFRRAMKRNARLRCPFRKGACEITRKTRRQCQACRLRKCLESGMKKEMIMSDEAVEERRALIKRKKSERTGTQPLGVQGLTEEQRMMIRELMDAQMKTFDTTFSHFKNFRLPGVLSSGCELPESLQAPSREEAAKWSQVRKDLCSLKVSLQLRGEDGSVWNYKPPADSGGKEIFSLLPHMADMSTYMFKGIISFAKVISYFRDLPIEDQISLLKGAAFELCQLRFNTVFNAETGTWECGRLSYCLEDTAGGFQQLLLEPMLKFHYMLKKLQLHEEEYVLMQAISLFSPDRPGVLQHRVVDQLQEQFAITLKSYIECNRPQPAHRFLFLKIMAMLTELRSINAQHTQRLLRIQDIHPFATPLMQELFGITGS

[7] = Stability of compound in GSH at pH 7.4 assessed as parent compound remaining at 10 mM and measured after 24 hrs by HPLC-UV analysis; format: physicochemical; conditions: GSH solution, read-out: Stability
[8] = Cmax in NMRI-nu/nu mouse at 100 mg/kg,po measured upto 24 hrs by HPLC-MS/MS analysis; format: ADME, organism-based; parameters: time < 24 hrs, dose 100 mg/kg, route po; conditions: in vivo
[9] = Stability of compound in GSH at pH 7.4 assessed as parent compound remaining at 10 mM and measured after 4 hrs by HPLC-UV analysis; format: physicochemical; conditions: GSH solution, read-out: Stability
[10] = Stability of compound in GSH at pH 7.4 assessed as parent compound remaining at 10 mM and measured after 2 hrs by HPLC-UV analysis; format: physicochemical; conditions: GSH solution, read-out: Stability
[11] = AUClast in Wistar rat at 0.3 mg/kg,iv measured upto 24 hrs by HPLC-MS/MS analysis; format: ADME, organism-based; parameters: dose 0.3 mg/kg, time < 24 hrs, route iv; conditions: in vivo
[12] = Half life in Wistar rat at 0.3 mg/kg,iv measured upto 24 hrs by HPLC-MS/MS analysis; format: ADME, organism-based; conditions: in vivo
[13] = Clearance in Wistar rat at 0.3 mg/kg,iv measured upto 24 hrs by HPLC-MS/MS analysis; format: ADME, organism-based; conditions: in vivo
[14] = Stability of compound in GSH at pH 7.4 assessed as parent compound remaining at 10 mM and measured after 1 hrs by HPLC-UV analysis; format: physicochemical; conditions: GSH solution, read-out: Stability
[15] = Stability of compound in cysteine at pH 7.4 assessed as parent compound remaining at 10 mM and measured after 24 hrs by HPLC-UV analysis; format: physicochemical; conditions: cysteine solution, read-out: Stability
[16] = Tmax in NMRI-nu/nu mouse at 100 mg/kg,po measured upto 24 hrs by HPLC-MS/MS analysis; format: ADME, organism-based; conditions: in vivo
[17] = Stability of compound in cysteine at pH 7.4 assessed as parent compound remaining at 10 mM and measured after 2 hrs by HPLC-UV analysis; format: physicochemical; conditions: cysteine solution, read-out: Stability
[18] = Microsomal stability in human liver microsomes assessed as intrinsic clearance at 1 uM measured upto 60 mins in presence of NADPH by HPLC-MS/MS analysis; format: ADME, Microsome; conditions: read-out: CLH (converted)
[19] = Apparent permeability across basolateral to apical side in human Caco-2 cells at 2 uM incubated for 2 hrs by LC-MS/MS analysis; format: ADME, cell-based
[20] = Stability of compound in cysteine at pH 7.4 assessed as parent compound remaining at 10 mM and measured after 4 hrs by HPLC-UV analysis; format: physicochemical; conditions: cysteine solution, read-out: Stability
[21] = biological target: T3, Peroxisome proliferator-activated receptor gamma (Mus musculus) (UniProt P37238); assay: Inverse agonist activity at PPARgamma in NMRI-nu/nu mouse assessed as reduction in Fabp4 mRNA expression in adipose tissue at 100 mg/kg for 3 days and measured 6 hrs last dose by qPCR analysis; format: organism-based; conditions: time 3.0 day
T3 sequence (whole entry): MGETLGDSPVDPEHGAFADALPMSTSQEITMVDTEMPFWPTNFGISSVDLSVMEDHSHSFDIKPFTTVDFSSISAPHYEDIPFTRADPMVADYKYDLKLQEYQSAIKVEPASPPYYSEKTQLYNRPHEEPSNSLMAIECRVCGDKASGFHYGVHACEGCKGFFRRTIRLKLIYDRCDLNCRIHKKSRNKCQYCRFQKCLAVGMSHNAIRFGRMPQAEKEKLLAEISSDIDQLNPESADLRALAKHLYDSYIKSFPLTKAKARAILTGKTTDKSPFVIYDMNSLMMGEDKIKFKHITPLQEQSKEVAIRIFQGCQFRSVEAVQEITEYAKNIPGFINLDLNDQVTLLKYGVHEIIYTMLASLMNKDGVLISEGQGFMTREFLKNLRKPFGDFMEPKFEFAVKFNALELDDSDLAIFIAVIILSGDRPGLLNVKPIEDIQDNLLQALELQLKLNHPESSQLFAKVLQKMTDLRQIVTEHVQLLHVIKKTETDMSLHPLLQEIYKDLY

[22] = AUClast in NMRI-nu/nu mouse at 100 mg/kg,po measured upto 24 hrs by HPLC-MS/MS analysis; format: ADME, organism-based; parameters: time < 24 hrs, dose 100 mg/kg, route po; conditions: in vivo
[23] = Volume of distribution at steady state in Wistar rat at 0.3 mg/kg,iv measured upto 24 hrs by HPLC-MS/MS analysis; format: ADME, organism-based; conditions: in vivo, read-out: Vdss
[24] = Stability in rat hepatocytes assessed as intrinsic clearance at 1 uM incubated for 1 hr by HPLC-MS/MS analysis; format: ADME, cell-based, Hepatocyte; conditions: read-out: CLH (converted)
[25] = Stability of compound in cysteine at pH 7.4 assessed as parent compound remaining at 10 mM and measured after 1 hrs by HPLC-UV analysis; format: physicochemical; conditions: cysteine solution, read-out: Stability
[26] = biological target: T4, Peroxisome proliferator-activated receptor alpha (Homo sapiens, UniProt Q07869); assay: Agonist activity at human PPARalpha expressed in CHO cells co-expressing GAL4-NHR-LBD assessed as transcriptional activation preincubated for 6 hrs followed by luciferin addition by luminescence method; format: cell-based
T4 sequence (Q07869 whole entry): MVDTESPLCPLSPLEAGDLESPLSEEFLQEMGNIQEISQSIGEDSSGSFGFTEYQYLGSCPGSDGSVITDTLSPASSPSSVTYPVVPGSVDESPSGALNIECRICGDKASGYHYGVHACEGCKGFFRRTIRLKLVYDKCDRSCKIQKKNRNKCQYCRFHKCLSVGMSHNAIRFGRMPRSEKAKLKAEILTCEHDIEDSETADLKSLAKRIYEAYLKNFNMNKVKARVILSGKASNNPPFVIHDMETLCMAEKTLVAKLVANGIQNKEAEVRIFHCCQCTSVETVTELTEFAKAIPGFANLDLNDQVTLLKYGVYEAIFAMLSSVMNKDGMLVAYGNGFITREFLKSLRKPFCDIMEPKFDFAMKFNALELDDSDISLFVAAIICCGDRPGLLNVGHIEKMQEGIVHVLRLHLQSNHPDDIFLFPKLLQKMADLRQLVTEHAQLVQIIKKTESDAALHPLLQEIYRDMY

[27] = biological target: T5, Peroxisome proliferator-activated receptor delta (Homo sapiens, UniProt Q03181); assay: Inverse agonist activity at human PPARdelta expressed in CHO cells co-expressing GAL4-NHR-LBD assessed as transcriptional repression preincubated for 6 hrs followed by luciferin addition by luminescence method; format: cell-based
T5 sequence (Q03181 whole entry): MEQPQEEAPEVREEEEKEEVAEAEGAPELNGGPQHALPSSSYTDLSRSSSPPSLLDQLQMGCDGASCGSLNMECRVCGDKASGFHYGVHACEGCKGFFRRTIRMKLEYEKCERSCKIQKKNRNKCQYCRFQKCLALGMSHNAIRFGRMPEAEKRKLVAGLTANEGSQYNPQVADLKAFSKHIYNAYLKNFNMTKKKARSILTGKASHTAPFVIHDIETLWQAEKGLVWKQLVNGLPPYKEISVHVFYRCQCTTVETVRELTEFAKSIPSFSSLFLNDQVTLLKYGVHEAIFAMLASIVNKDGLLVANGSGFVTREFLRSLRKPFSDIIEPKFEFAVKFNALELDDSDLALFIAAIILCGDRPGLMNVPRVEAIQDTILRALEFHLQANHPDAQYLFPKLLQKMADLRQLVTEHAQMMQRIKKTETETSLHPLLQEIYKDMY

- pEC50 [1]: 6.30
- pIC50 [2]: 7.04
Structure (SMILES): Cc1cccnc1NC(=O)c1cc(C(=O)NCc2ccc(F)c(F)c2)c(F)cc1Cl
- pIC50 [3]: 6.16
- Emax [4]: 108%

- pEC50 [1]: 7.31
Structure (SMILES): Cc1cc(-c2nnco2)ccc1NC(=O)c1cc(C(=O)NCc2ccc(F)c(F)c2)c(F)cc1Cl
- Emax [4]: 87%

- pEC50 [1]: 6.96
Structure (SMILES): O=C(NCc1ccc(F)c(F)c1)c1cc(C(=O)Nc2ccccn2)c(Cl)cc1F
- Emax [4]: 100%

- solubility thermodynamic [5]: 1.6 µg/mL (≈ 3.08 µM)
- pIC50 [6]: < 4.30
- remaining at 24 h, 10000 µM [7]: 100%
- Cmax [8]: 73 nM
- remaining at 4 h, 10000 µM [9]: 100%
- remaining at 2 h, 10000 µM [10]: 100%
- AUClast [11]: 0.35 kg·h/L
- half-life [12]: 0.21 h
- clearance [13]: 46.7 mL/min/kg
- remaining at 1 h, 10000 µM [14]: 100%
- remaining at 24 h, 10000 µM [15]: 100%
- Tmax [16]: 7 h
- remaining at 2 h, 10000 µM [17]: 100%
- CLint scaled at 1 µM [18]: 14.7 mL/min/kg
- Papp B→A at 2 h, 2 µM [19]: 10.9 ×10⁻⁶ cm/s
- remaining at 4 h, 10000 µM [20]: 100%
- Activity [21]: inactive
- AUC(0-t) at 24 h [22]: 520 ng·h/mL
- Vd [23]: 0.84 L/kg
- CLint scaled at 1 µM [24]: 42.5 mL/min/kg
- remaining at 1 h, 10000 µM [25]: 100%
Structure (SMILES): Cc1cc(N2CCOCC2)cnc1NC(=O)c1cc(C(=O)NCc2ccc(F)c(F)c2)c(F)cc1Cl
- pIC50 [3]: 7.01
- Emax [4]: 99%

Continued, molecule first:

Structure (SMILES): Cc1ccccc1NC(=O)c1cc(C(=O)NCc2ccccc2)c(F)cc1Cl
- pEC50 [1]: 7.16
- pIC50 [2]: 7.42
- pIC50 [3]: 6.78
- Emax [4]: 26%

Structure (SMILES): Cc1cccc(-c2nc3cc(NC(=O)c4cc(C(=O)NCc5ccc(F)c(F)c5)c(F)cc4Cl)ccc3o2)c1
- pEC50 [1]: 6.64
- pIC50 [3]: 7.73
- Emax [4]: 93%

Structure (SMILES): O=C(NCc1ccc(Cl)cc1)c1ccc(Cl)c(C(=O)Nc2ccccc2)c1
- pEC50 [1]: 5.14
- pIC50 [2]: < 5.30

Structure (SMILES): Cc1c(C)n(Cc2ccc(Cl)c(O[C@@H](C)C(=O)O)c2)c2ccc(C(=O)N[C@@H](C)c3ccc(C(C)(C)C)cc3)cc12
- Activity [21]: inactive
- pIC50 [26]: 6.03
- pIC50 [27]: 5.05

— ChEMBL document CHEMBL5236643, “Discovery and characterization of orally bioavailable 4-chloro-6-fluoroisophthalamides as covalent PPARG inverse-agonists” (Bioorg Med Chem, 2023)
